{"source": "ChEMBL document CHEMBL5465560", "about": "“Selectivity Literature for EUbOPEN Chemogenomic Library” (2024)", "key": {"[1]": {"biological_target": "CDK9/cyclin T1 (Homo sapiens) (UniProt O60563+P50750)", "assay": "Selectivity interaction (Adapta Assay) EUB0001632a CDK9", "assay_type": "protein-complex assay", "conditions": "at 10 µM"}, "[2]": {"biological_target": "T1, Serine/threonine-protein kinase Nek3 (Homo sapiens) (UniProt P51956)", "T1 sequence (whole entry)": "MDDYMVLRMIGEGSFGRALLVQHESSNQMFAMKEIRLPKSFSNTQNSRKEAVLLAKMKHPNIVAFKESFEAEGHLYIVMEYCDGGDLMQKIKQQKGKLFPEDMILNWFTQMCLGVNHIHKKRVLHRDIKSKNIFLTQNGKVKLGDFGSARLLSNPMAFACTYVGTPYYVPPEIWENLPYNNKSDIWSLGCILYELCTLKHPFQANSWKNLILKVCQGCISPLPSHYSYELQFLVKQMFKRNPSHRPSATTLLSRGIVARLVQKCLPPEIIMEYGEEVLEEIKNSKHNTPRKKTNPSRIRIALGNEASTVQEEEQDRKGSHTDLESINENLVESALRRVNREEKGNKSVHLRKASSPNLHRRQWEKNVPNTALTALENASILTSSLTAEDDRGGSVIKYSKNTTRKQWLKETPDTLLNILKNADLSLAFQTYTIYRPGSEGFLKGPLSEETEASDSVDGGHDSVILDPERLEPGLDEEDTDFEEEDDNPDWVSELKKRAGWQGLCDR", "assay": "Selectivity interaction (Upstate Kinase Profiler service (Millipore)) EUB0000056c NEK3", "conditions": "at 1 µM"}, "[3]": {"biological_target": "Serine/threonine-protein kinase Nek7 (Homo sapiens) (UniProt Q8TDX7)", "sequence (Q8TDX7 whole entry, looked up)": "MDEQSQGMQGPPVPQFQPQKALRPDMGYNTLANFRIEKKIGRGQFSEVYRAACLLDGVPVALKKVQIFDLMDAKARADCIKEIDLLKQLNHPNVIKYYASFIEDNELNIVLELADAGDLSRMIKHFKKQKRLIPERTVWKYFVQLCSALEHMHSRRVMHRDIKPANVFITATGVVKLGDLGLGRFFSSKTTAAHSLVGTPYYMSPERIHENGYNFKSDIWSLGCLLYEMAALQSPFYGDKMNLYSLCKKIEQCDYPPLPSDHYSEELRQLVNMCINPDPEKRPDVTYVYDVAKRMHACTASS", "assay": "Selectivity interaction (KinomeScan (DiscoverX)) EUB0000695a NEK7", "conditions": "at 100 nM"}, "[4]": {"biological_target": "Transient receptor potential cation channel subfamily M member 6 (Homo sapiens) (UniProt Q9BX84)", "assay": "Selectivity interaction (KinomeScan (DiscoverX)) EUB0001049a TRPM6", "conditions": "at 1 µM"}, "[5]": {"biological_target": "T2, TGF-beta receptor type-1 (Homo sapiens) (UniProt P36897)", "T2 sequence (whole entry)": "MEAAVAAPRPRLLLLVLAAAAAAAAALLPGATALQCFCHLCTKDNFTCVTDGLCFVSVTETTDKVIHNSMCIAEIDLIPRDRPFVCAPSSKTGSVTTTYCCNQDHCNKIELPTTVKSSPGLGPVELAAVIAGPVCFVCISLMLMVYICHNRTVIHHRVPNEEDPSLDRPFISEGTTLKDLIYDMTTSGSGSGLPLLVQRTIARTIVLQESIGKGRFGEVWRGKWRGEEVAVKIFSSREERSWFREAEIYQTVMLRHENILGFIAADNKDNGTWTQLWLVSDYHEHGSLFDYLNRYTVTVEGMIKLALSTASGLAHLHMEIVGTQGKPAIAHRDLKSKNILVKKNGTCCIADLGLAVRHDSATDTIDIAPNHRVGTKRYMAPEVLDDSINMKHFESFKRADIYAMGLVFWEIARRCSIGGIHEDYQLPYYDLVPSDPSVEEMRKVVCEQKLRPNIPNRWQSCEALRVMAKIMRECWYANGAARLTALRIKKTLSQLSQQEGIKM", "assay": "Selectivity interaction (Ambit KINOMEscan and KiNATiv profiling in Jurkat cells) EUB0000090b TGFBR1", "assay_type": "cell-based", "conditions": "at 1 µM"}, "[6]": {"biological_target": "Dual specificity tyrosine-phosphorylation-regulated kinase 1B (Homo sapiens, UniProt Q9Y463)", "sequence (Q9Y463 whole entry, looked up)": "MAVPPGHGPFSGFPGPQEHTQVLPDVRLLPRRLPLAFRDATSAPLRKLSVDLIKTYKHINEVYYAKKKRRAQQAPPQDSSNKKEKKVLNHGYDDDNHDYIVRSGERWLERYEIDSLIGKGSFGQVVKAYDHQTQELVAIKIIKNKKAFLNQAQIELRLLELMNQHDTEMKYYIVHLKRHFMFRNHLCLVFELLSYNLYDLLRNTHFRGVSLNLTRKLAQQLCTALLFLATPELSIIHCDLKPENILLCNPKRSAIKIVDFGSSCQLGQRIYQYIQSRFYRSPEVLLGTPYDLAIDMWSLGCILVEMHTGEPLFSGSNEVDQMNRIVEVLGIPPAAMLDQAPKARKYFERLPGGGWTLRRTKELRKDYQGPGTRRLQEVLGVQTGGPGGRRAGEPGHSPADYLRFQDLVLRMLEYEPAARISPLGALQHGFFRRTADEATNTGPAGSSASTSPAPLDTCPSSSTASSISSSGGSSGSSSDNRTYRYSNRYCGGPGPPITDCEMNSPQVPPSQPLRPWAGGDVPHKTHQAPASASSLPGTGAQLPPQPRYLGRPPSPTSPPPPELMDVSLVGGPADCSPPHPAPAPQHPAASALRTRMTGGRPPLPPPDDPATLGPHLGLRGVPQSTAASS", "assay": "Selectivity interaction (Ambit KINOMEscan and KiNATiv profiling in Jurkat cells) EUB0000090b DYRK1B", "assay_type": "cell-based", "conditions": "at 1 µM"}, "[7]": {"biological_target": "Ephrin type-A receptor 7 (Homo sapiens) (UniProt Q15375)", "sequence (Q15375 28-998 limits assumed)": "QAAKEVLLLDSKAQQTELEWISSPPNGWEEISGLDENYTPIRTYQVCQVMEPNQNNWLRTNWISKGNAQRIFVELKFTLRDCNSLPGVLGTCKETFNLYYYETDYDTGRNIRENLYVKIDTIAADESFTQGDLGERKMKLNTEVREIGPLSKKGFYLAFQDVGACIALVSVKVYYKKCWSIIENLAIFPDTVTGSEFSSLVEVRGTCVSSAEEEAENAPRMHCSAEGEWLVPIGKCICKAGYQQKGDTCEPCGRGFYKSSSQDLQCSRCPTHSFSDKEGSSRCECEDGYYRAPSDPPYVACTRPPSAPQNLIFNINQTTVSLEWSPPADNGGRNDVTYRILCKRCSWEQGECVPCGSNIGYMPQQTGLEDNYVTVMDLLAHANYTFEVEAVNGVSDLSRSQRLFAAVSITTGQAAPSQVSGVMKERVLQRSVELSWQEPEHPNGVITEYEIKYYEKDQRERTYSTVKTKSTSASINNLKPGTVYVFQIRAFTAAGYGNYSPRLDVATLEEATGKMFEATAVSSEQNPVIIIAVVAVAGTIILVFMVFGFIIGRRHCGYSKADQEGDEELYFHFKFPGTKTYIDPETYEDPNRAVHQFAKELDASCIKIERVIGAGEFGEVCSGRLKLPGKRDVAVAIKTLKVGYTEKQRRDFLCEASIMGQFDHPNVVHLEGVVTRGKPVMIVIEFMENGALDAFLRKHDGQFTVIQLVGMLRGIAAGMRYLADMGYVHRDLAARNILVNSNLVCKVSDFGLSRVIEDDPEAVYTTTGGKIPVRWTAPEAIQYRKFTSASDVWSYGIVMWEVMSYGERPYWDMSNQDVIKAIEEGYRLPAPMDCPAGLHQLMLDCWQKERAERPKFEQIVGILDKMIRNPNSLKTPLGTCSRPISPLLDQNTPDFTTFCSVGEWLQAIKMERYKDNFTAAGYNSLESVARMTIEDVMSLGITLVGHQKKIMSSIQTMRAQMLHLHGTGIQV", "assay": "Selectivity interaction (Kinase panel (DSF assay)) EUB0001558a EPHA7"}, "[8]": {"biological_target": "Ribosomal protein S6 kinase alpha-4 (Homo sapiens) (UniProt O75676)", "sequence (O75676 whole entry, looked up)": "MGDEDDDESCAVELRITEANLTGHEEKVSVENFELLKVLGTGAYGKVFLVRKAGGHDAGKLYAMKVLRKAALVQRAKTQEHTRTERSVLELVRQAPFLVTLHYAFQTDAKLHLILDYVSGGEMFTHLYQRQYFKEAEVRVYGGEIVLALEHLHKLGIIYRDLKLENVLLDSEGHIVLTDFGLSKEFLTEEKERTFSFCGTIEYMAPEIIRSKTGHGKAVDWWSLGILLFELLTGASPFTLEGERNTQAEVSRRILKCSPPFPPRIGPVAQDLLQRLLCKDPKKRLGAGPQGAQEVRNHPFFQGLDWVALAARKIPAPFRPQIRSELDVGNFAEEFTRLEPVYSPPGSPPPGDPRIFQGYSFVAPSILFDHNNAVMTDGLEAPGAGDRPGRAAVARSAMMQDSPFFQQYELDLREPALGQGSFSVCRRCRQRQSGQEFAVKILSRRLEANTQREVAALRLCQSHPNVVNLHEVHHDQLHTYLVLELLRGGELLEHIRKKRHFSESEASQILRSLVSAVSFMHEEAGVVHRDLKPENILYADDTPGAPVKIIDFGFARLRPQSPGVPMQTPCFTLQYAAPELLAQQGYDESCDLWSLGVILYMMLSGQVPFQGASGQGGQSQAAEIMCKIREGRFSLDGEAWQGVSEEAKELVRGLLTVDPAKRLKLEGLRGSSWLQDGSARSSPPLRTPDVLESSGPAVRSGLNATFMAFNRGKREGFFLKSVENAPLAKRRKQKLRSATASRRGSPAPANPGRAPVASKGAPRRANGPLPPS", "assay": "Selectivity interaction (KinomeScan (DiscoverX)) EUB0000655a RPS6KA4", "conditions": "at 10 µM"}, "[9]": {"biological_target": "T3, Serine/threonine-protein kinase TAO2 (Homo sapiens) (UniProt Q9UL54)", "T3 sequence (whole entry)": "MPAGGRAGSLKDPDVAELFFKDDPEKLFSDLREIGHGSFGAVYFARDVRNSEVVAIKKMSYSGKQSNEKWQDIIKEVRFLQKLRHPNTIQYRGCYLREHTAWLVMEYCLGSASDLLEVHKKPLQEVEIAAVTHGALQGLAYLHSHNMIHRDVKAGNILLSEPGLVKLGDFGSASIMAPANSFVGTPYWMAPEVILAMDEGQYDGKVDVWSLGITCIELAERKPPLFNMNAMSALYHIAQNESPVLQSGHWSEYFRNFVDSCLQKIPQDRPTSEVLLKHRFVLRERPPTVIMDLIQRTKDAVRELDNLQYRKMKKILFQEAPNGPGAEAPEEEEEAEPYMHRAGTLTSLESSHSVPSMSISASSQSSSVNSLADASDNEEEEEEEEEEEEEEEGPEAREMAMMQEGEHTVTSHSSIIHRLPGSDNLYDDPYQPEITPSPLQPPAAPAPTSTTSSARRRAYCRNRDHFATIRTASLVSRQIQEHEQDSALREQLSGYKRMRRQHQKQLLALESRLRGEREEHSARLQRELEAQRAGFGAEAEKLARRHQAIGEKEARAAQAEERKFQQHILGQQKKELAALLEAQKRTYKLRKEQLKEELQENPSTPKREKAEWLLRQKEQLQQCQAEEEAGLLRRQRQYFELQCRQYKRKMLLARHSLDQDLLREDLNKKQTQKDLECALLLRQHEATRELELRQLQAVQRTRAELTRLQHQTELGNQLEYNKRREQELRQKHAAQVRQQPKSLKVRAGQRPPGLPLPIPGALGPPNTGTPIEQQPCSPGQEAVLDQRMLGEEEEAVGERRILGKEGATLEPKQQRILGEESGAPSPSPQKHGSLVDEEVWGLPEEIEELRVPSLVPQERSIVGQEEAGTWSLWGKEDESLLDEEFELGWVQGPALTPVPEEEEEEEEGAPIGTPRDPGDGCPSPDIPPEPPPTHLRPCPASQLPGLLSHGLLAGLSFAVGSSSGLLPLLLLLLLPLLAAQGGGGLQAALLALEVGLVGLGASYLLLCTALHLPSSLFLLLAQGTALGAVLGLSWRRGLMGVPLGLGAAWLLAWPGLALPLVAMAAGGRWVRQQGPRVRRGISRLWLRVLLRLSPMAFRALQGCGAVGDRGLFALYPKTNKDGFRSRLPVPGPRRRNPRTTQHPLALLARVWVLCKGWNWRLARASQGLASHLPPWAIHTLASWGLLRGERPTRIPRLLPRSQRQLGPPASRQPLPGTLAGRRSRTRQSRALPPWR", "assay": "Selectivity interaction (KinomeScan (DiscoverX)) EUB0000045b TAOK2"}, "[10]": {"biological_target": "5'-AMP-activated protein kinase catalytic subunit alpha-2 (Homo sapiens) (UniProt P54646)", "sequence (P54646 whole entry, looked up)": "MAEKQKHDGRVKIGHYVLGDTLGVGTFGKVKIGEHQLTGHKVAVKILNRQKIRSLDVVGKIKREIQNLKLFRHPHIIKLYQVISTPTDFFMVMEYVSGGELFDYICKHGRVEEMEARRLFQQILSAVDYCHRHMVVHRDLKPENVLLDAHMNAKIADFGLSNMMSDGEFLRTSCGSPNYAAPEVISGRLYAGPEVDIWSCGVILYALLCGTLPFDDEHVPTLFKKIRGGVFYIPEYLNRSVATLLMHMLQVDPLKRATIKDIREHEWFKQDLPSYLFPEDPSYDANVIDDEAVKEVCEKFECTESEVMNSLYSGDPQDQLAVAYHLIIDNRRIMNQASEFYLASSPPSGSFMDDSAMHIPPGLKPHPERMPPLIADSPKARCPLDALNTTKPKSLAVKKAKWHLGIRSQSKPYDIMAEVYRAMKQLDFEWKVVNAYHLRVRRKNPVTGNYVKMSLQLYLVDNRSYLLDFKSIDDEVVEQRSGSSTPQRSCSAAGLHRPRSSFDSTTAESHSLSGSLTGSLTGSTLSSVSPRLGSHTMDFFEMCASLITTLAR", "assay": "Selectivity interaction (KinomeScan (DiscoverX)) EUB0000092b PRKAA2", "conditions": "at 10 µM"}, "[11]": {"biological_target": "Calcium/calmodulin-dependent protein kinase kinase 2 (Homo sapiens) (UniProt Q96RR4)", "sequence (Q96RR4 2-588 limits assumed)": "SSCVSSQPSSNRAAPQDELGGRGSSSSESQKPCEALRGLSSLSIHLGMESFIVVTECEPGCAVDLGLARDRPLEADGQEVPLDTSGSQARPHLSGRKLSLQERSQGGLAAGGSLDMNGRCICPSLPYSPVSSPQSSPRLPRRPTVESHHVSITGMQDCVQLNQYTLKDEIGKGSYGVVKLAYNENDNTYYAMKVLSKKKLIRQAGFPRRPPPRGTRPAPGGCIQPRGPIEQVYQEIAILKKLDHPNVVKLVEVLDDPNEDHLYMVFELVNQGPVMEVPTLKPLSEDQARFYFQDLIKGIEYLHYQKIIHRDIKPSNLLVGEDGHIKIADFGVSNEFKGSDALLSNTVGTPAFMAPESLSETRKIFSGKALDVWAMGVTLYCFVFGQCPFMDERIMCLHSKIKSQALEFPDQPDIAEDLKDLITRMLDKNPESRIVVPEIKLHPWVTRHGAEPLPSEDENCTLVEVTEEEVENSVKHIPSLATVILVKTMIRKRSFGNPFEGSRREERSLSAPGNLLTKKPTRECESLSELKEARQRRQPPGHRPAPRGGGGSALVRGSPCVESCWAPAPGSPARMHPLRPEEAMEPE", "conditions": "at 10 µM"}}, "data": [{"smiles": "Cn1cc(-n2cnc3c(NCc4nc5cc(Cl)c(Cl)cc5[nH]4)nc(N4CCOCC4)nc32)cn1", "values": [{"measurement": "% of inhibition", "setting": "[1]", "value": 63.9, "unit": "%"}]}, {"smiles": "Cc1ccc(-c2ccc3c(ccc4sc5c(c43)NC[C@@H](C)NC5=O)n2)cn1", "values": [{"measurement": "% of inhibition", "setting": "[2]", "value": 6, "unit": "%"}]}, {"smiles": "Cc1cc(F)c(C(=O)Nc2cccc(-c3nncn3C(C)C)n2)cc1-n1cnc(C2CC2)c1", "values": [{"measurement": "% of control", "setting": "[3]", "value": 100, "unit": "%"}]}, {"smiles": "COc1cc(Nc2nc(C)cc(-c3cnn4nc(OC)ccc34)n2)cc(C(F)(F)F)c1", "values": [{"measurement": "% of control", "setting": "[4]", "value": 96, "unit": "%"}]}, {"smiles": "CN(C)C/C=C/C(=O)Nc1ccc(C(=O)N2CCCC(Nc3ncc(Cl)c(-c4c[nH]c5ccccc45)n3)C2)cc1", "note": "(configuration not stated)", "values": [{"measurement": "% of control", "setting": "[5]", "value": 87, "unit": "%"}, {"measurement": "% of control", "setting": "[6]", "value": 6.1, "unit": "%"}]}, {"smiles": "CC(C)(O)[C@H](F)CN1Cc2cc(NC(=O)c3cnn4cccnc34)c(N3CCOCC3)cc2C1=O", "values": [{"measurement": "dTM", "setting": "[7]", "value": -0.2, "unit": "K"}]}, {"smiles": "CN(C)CCOc1ccc(-c2nc(-c3ccncc3)c(-c3ccc4c(c3)CC/C4=N\\O)[nH]2)cc1", "values": [{"measurement": "% of control", "setting": "[8]", "value": 100, "unit": "%"}]}, {"smiles": "C=CC(=O)Nc1cc(-n2c(=O)ccc3cnc4ccc(-c5ccc(NS(C)(=O)=O)cc5)cc4c32)ccc1C", "values": [{"measurement": "% of control", "setting": "[9]; at 1 µM", "value": 80, "unit": "%"}, {"measurement": "% of control", "setting": "[9]; at 10 µM", "value": 100, "unit": "%"}]}, {"smiles": "CCC(=O)N1CCN(c2ccc(-n3c(=O)ccc4cnc5ccc(-c6cnc7ccccc7c6)cc5c43)cc2C(F)(F)F)CC1", "values": [{"measurement": "% of control", "setting": "[10]", "value": 74, "unit": "%"}]}, {"smiles": "Cc1cc([C@@H](C)Nc2ccccc2C(=O)O)c2nc(N3CCOCC3)cc(=O)n2c1", "note": "[AZD-6482]", "values": [{"measurement": "% of control", "setting": "[11]", "value": 100, "unit": "%"}]}]}
